Earlier results in patent publication US10934504B2, “Laundry treatment compositions comprising perfume and silica microparticles” (Conopco, Inc., priority 2016, dated 2021).

Details: values taken from the Good Scents website

SMILES	logKow
CC(=O)OCc1ccccc1 [Benzyl acetate]	2.0
CCCCCCCCCC(C)C=O (stereo not drawn) [C12 Aldehyde MNA]	4.9
C=CC(C)CCCC(C)(C)O (stereo not drawn) [Dihydromyrcenol]	2.9
c1ccc(CCOC2CCCCC2)cc1 [Phenafleur]	3.8
CC(=O)c1cc2c(cc1C)C(C)(C)C(C)CC2(C)C (stereo not drawn) [Tonalid]	4.8
CCCCCCOC(=O)c1ccccc1O [n-Hexyl salicylate]	5.7

Second part, the molecule after the results:

logKow	SMILES
2.7	CC(=O)OC(C)(C)Cc1ccccc1 [Dimethyl benzyl carbinyl acetate]
3.6	CC(C=O)Cc1ccc(C(C)(C)C)cc1 (stereo not drawn) [Lilial]
3.4	C=C(C)[C@H]1CC=C(C)CC1 [Limonene]
2.4	CCCC(C)C(=O)OCC (stereo not drawn) [Manzanate]
2.2	CC(=O)OC1CC2CC1C1CC=CC21 (stereo not drawn) [Verdyl acetate]
2.9	CC(=O)/C=C/C1=C(C)CCCC1(C)C [β-Ionone]
